Measurements: ChEMBL document CHEMBL1949568, “Discovery of diphenyl lactam derivatives as N-type calcium channel blockers” (Bioorg Med Chem Lett, 2012)
≈ marks a conversion by molar mass, not a printed value. Calls of active or inactive are those of the source. The rule behind the calls is not given here.

Tests used:
[1] = Inhibition of N-type calcium channel by FLIPR assay
[2] = Aqueous solubility of the compound at pH 7; format: physicochemical
[3] = Metabolic stability in rat liver microsomes assessed as compound remaining after 30 mins; format: ADME, Microsome; conditions: read-out: Stability
[4] = Metabolic stability in human liver microsomes assessed as compound remaining after 30 mins; format: ADME, Microsome; conditions: read-out: Stability
[5] = system: Rattus norvegicus; assay: Antinociceptive activity in rat capsaicin model of secondary mechanical hyperalgesia assessed as inhibition of tactile allodynia at 150 mg/kg, po; format: functional, organism-based; set-up: dose 150 mg/kg
[6] = system: Rattus norvegicus; assay: Antinociceptive activity in rat capsaicin model of secondary mechanical hyperalgesia assessed as inhibition of tactile allodynia at 30 mg/kg, po; format: functional, organism-based; set-up: dose 30 mg/kg
[7] = Oral bioavailability in rat at 3 umol/kg; format: ADME, organism-based; conditions: in vivo
[8] = AUC in rat at 3 umol/kg, po; format: ADME, organism-based; conditions: plasma
[9] = Plasma clearance in rat at 3 umol/kg, po; format: ADME, organism-based
[10] = Half life in rat at 3 umol/kg, po; format: ADME, organism-based; conditions: in vivo
[11] = system: Rattus norvegicus; assay: Volume of distribution at steady state in rat at 3 umol/kg, po; format: ADME, organism-based; conditions: in vivo
[12] = AUC in rat at 30 umol/kg, po; format: ADME, organism-based; conditions: plasma
[13] = Oral bioavailability in rat at 30 umol/kg; format: ADME, organism-based; conditions: in vivo
[14] = Volume of distribution at steady state in rat at 5 umol/kg, iv and 30 umol/kg, po; format: ADME, organism-based; conditions: in vivo, read-out: Vdss
[15] = Half life in rat at 5 umol/kg, iv and 30 umol/kg, po; format: ADME, organism-based; conditions: in vivo
[16] = Plasma clearance in rat at 5 umol/kg, iv and 30 umol/kg, po; format: ADME, organism-based

Row | SMILES | IC50 [1] [nM] | pIC50 [1] | solubility [2] [µM] | further results
1 | O=C(CN1CCCC(c2ccc(F)cc2)(c2ccc(F)cc2)C1=O)N1CCN(Cc2cccc(C(F)(F)F)c2)CC1 | 1360 | 5.87 | < 25 | 
2 | O=C(CN1CCC(c2ccccc2)(c2ccccc2)C1=O)N1CCN(Cc2c(Cl)cccc2Cl)CC1 | 900 | 6.04 | < 25 | 
3 | O=C(CN1CCCC(c2ccccc2)(c2ccccc2)C1=O)N1CCN(C(c2ccc(F)cc2)c2ccc(F)cc2)CC1 | 2360 | 5.63 | < 25 | 
4 | O=C(CN1CCCC(c2ccccc2)(c2ccccc2)C1=O)N1CCC(c2ccccc2)(c2ccccc2)C1 | 2430 | 5.61 | < 25 | 
5 | O=C(CN1CCCC(c2ccccc2)(c2ccccc2)C1=O)N1CCCC(c2ccccc2)(c2ccccc2)C1 | 810 | 6.09 | < 25 | 
6 | O=C(CN1CCC(c2ccccc2)(c2ccccc2)C1=O)N1CCN(Cc2ccc(F)cc2)CC1 | 2220 | 5.65 | 57 (≈ 26.9 µg/mL) | 
7 | O=C(CN1CCCC(c2ccccc2)(c2ccccc2)C1=O)N1CCN(Cc2ccc(Cl)cc2Cl)CC1 | 1800 | 5.75 | < 25 | 
8 | O=C(CN1CCCC(c2ccccc2)(c2ccccc2)C1=O)N1CCN(Cc2ccc(C(F)(F)F)cc2)CC1 | 1380 | 5.86 | < 25 | 
9 | O=C(CN1CCCC(c2ccccc2)(c2ccccc2)C1=O)N1CC(c2ccc(C(F)(F)F)cc2)C1 | 3070 | 5.51 | < 25 | 
10 | O=C(CN1CCCC(c2ccccc2)(c2ccccc2)C1=O)N1CCC(C(c2ccccc2)c2ccccc2)CC1 | 2610 | 5.58 | < 25 | 
11 | O=C(CN1CCC(c2ccccc2)(c2ccccc2)C1=O)N1CCN(C(c2ccccc2)c2ccc(F)cc2)CC1 (stereo not drawn) | 450 | 6.35 | < 25 | 
12 | O=C(CN1CCCC(c2ccccc2)(c2ccccc2)C1=O)N1CCC(NC(c2ccccc2)c2ccccc2)CC1 | 810 | 6.09 | < 25 | remaining at 0.5 h [3]: < 0.1%; remaining at 0.5 h [4]: < 0.1%
13 | NCC1(CC(=O)O)CCCCC1 |  |  |  | inhibition [5]: Active
14 | O=C(CN1CCCC(c2ccccc2)(c2ccccc2)C1=O)N1CCN(C(c2ccccc2)c2ccccc2)CC1 | 1380 | 5.86 | < 25 | inhibition [6]: Active; bioavailability [7]: 16.6%; remaining at 0.5 h [3]: 0.1%; AUC [8]: 186 ng·h/mL; CL/F [9]: 25 mL/min/kg; half-life [10]: 5.2 h; remaining at 0.5 h [4]: 0.1%; Vdss [11]: 5.8 L/kg
15 | O=C(CN1CCC(c2ccccc2)(c2ccccc2)C1=O)N1CCN(C(c2ccccc2)c2ccc(Cl)cc2)CC1 (stereo not drawn) | 1010 | 5.99 | < 25 | 
16 | O=C(CN1CCCC(c2ccccc2)(c2ccccc2)C1=O)N1CCN(Cc2cccc(Cl)c2)CC1 | 1320 | 5.88 | < 25 | 
17 | O=C(CN1CCC(c2ccccc2)(c2ccccc2)C1=O)N1CCN(Cc2cccc(C(F)(F)F)c2)CC1 | 1030 | 5.99 | < 25 | remaining at 0.5 h [3]: 0.1%; remaining at 0.5 h [4]: 0.3%
18 | O=C(CN1CCCC(c2ccccc2)(c2ccccc2)C1=O)N1CCN(Cc2cccc(C(F)(F)F)c2)CC1 | 930 | 6.03 | < 25 | remaining at 0.5 h [3]: 1.2%; AUC [12]: 1000 ng·h/mL; bioavailability [13]: 15.6%; Vd [14]: 5.9 L/kg; half-life [15]: 2.7 h; clearance [16]: 41.7 mL/min/kg; remaining at 0.5 h [4]: 0.1%
19 | O=C(CN1CCCC(c2ccccc2)(c2ccccc2)C1=O)N1CCC(C(O)(c2ccccc2)c2ccccc2)CC1 | 1740 | 5.76 | < 25 | 
20 | O=C(CN1CCC(c2ccccc2)(c2ccccc2)C1=O)N1CCN(Cc2ccc(Cl)cc2Cl)CC1 | 520 | 6.28 | < 25 | 
21 | O=C(CN1CCC(c2ccccc2)(c2ccccc2)C1=O)N1CCN(C(c2ccccc2)c2ccccc2)CC1 | 720 | 6.14 | < 25 | inhibition [6]: Active; bioavailability [7]: 16.4%; remaining at 0.5 h [3]: 0.4%; AUC [8]: 159 ng·h/mL; CL/F [9]: 26.7 mL/min/kg; half-life [10]: 5.6 h; Vdss [11]: 6.9 L/kg
22 | O=C(CN1CCCC(c2ccccc2)(c2ccccc2)C1=O)N1CCC(c2ccccc2)(c2ccccc2)CC1 | 660 | 6.18 | < 25 | AUC [12]: 2990 ng·h/mL; bioavailability [13]: 50%; Vd [14]: 11.4 L/kg; half-life [15]: 6.3 h; clearance [16]: 45 mL/min/kg
23 | O=C(CN1CCCC(c2ccc(F)cc2)(c2ccc(F)cc2)C1=O)N1CCN(C(c2ccccc2)c2ccccc2)CC1 | 4610 | 5.34 | < 25 | 
24 | O=C(CN1CCC(c2ccc(F)cc2)(c2ccc(F)cc2)C1=O)N1CCN(C(c2ccccc2)c2ccccc2)CC1 | 830 | 6.08 | < 25 | inhibition [6]: Active; bioavailability [7]: 20.3%; remaining at 0.5 h [3]: 2%; AUC [8]: 160 ng·h/mL; CL/F [9]: 36.7 mL/min/kg; half-life [10]: 7.2 h; remaining at 0.5 h [4]: 2.5%; Vdss [11]: 13.2 L/kg
25 | O=C(CN1CCC(c2ccccc2)(c2ccccc2)C1=O)N1CCN(C(c2ccc(F)cc2)c2ccc(F)cc2)CC1 | 430 | 6.37 | < 25 | 
26 | O=C(CN1CCCC(c2ccccc2)(c2ccccc2)C1=O)N1CCc2ccc(C(F)(F)F)cc2C1 | 4440 | 5.35 | < 25 | 
27 | O=C(CN1CCC(c2ccc(F)cc2)(c2ccc(F)cc2)C1=O)N1CCN(Cc2cccc(C(F)(F)F)c2)CC1 | 1010 | 6 | < 25 | 
